Reference: US9596859B2, “Emulsifiable concentrate for a phytosanitary composition, phytosanitary composition and phytosanitary film” (Total Marketing Services, priority 2009, dated 2017)

System: Aonidiella aurantii
Assay: Insecticidal efficacy of emulsions sprayed on citrus groves (oranges)
Settings: concentration 0.151/hl
Protocol: Samples of products to be tested on citrus groves (oranges) are prepared. The reference R corresponds to an untreated citrus plot.
Emulsions according to the invention are used, obtained from X6, at 3% in a mixture of hydrocarbons as described in Example 1 for forming the concentrate. This concentrate is mixed at concentrations of 1 and 2% in water, then emulsified. The citrus groves are sprayed at a rate of 1200 L/ha. The efficacy of these emulsions is compared to that of an emulsion of the prior art T1, as described hereinafter and to a chemical reference product corresponding to the use of a synthetic pesticide, here Chlorpyrifos, reference T2.
For the emulsion T1, the concentrate is prepared using 1.4% ethoxylated C12-C14 alcohol and 1.6% ethoxylated C13 alcohol acid phosphate in the same mixture of hydrocarbons. As previously, this concentrate is mixed at concentrations of 1 and 2% in water then emulsified. The resulting emulsions are applied in an identical manner onto citrus.
The efficacy of these emulsions in preventing harmful insect activity is then evaluated, by comparison with the reference products and the prior art. To this end, a count is undertaken of the number of insects present at the time of application of the emulsions on the reference, and the number of insects having withstood the treatment after 20 days. The efficacy is measured according to the Abbott formula based on the number of live insects, the number of dead insects and the % of citrus infected (more than 3 insects per fruit).

## CCOP(=S)(OCC)Oc1nc(Cl)c(Cl)cc1Cl [Concentrate T2, Chlorpyrifos]
Abbott formula, t + 20 days
  % Efficacy (Based on mortality): 83.3%
  % Efficacy (Based on the number of live individuals): 89.9%
T + 20 days, citrus
  % mortality: 88.0%
  Number of dead individuals: 172.0
  Number of live individuals: 23.5
T + 20 days, infected = more than 3 insects per fruit
  % fruits infected: 7.8%
T = 0 (at application), citrus
  Number of live individuals: 216.5
